Series [1] relates to Staphylococcus aureus. Description: Antimicrobial activity against methicillin-resistant Staphylococcus aureus CBD-635 assessed as complete inhibition of bacterial growth after overnight incubation. Type of series: functional.
Series [2] deals with Staphylococcus aureus. Description: Antimicrobial activity against methicillin-resistant Staphylococcus aureus CBD-635 assessed as complete inhibition of bacterial growth at 5 times MIC after overnight incubation in presence of tetrahydrofolic acid. In kind it is functional, organism-based.
Series [3] relates to Staphylococcus aureus. Description: Antimicrobial activity against N2,N4-dibenzylquinazoline-2,4-diamine-induced methicillin-resistant Staphylococcus aureus CBD-635 mutant M1 assessed as complete inhibition of bacterial growth after overnight incubation. Type of series: functional.
The test system of series [4] is Staphylococcus aureus. Description: Antimicrobial activity against N2,N4-dibenzylquinazoline-2,4-diamine-induced methicillin-resistant Staphylococcus aureus CBD-635 mutant M6 assessed as complete inhibition of bacterial growth after overnight incubation. Type of series: functional.
The subject of series [5] is Staphylococcus aureus. Description: Antimicrobial activity against N2,N4-dibenzylquinazoline-2,4-diamine-induced methicillin-resistant Staphylococcus aureus CBD-635 mutant M3 assessed as complete inhibition of bacterial growth after overnight incubation. In kind it is functional.
Series [6] deals with Staphylococcus aureus. Description: Antimicrobial activity against N2,N4-dibenzylquinazoline-2,4-diamine-induced methicillin-resistant Staphylococcus aureus CBD-635 mutant M4 assessed as complete inhibition of bacterial growth after overnight incubation. Type of series: functional.
For series [7], the system named is Staphylococcus aureus. Description: Antimicrobial activity against N2,N4-dibenzylquinazoline-2,4-diamine-induced methicillin-resistant Staphylococcus aureus CBD-635 mutant M7 assessed as complete inhibition of bacterial growth after overnight incubation. Type of series: functional.
Series [8] deals with Staphylococcus aureus. Description: Antimicrobial activity against N2,N4-dibenzylquinazoline-2,4-diamine-induced methicillin-resistant Staphylococcus aureus CBD-635 mutant M5 assessed as complete inhibition of bacterial growth after overnight incubation. In kind it is functional.
Series [9] relates to Staphylococcus aureus. Description: Antimicrobial activity against N2,N4-dibenzylquinazoline-2,4-diamine-induced methicillin-resistant Staphylococcus aureus CBD-635 mutant M2 assessed as complete inhibition of bacterial growth after overnight incubation. In kind it is functional.
Series [10] has as its system Staphylococcus aureus. Description: Antibacterial activity against trimethoprim-resistant Staphylococcus aureus. Type of series: functional.
The test system of series [11] is Staphylococcus aureus. Description: Antibacterial activity against Staphylococcus aureus infected in mouse assessed as protection of mouse. Type of series: functional.
Series [12] can be described thus: Cytotoxicity against human A549 cells assessed as cell viability recovery at 1.8 to 8.8 uM by MTT assay relative to untreated control. Type of series: cell-based. To be noted: read-out: Activity. On the technique in general: Tetrazolium dyes change colour on reduction, which living cells bring about.
Series [13] is described as follows: Cytotoxicity against human A549 cells assessed as cell viability recovery at 440 uM by MTT assay relative to untreated control. The conditions noted are these: read-out: Activity. Type of series: cell-based.
A short description of series [14]: Aqueous solubility of the compound at pH 2 after 18 hrs incubation by HPLC. In kind it is physicochemical.
Series [15] concerns Staphylococcus aureus. Description: Antimicrobial activity against wild type Staphylococcus aureus in presence of sulfamethoxazole. Type of series: functional.
For series [16], the system named is Staphylococcus aureus. Description: Antimicrobial activity against methicillin-resistant Staphylococcus aureus CBD-635 assessed as zone of inhibition at 5 mg/ml after 24 hrs by disk diffusion assay. Type of series: functional. The conditions noted are these: CBD-635, 24 h, read-out: IZ. A general note: In agar diffusion tests the substance spreads into inoculated agar from a disc or well.

The conditions of series [17]: pampa, pH 4.
The test system of series [18] is Staphylococcus aureus. Description: Bactericidal activity against methicillin-resistant Staphylococcus aureus CBD-635 assessed as bacterial killing. In kind it is functional.
In series [19] the test system is Staphylococcus aureus. Description: Antimicrobial activity against Staphylococcus aureus infected Galleria mellonella assessed as increase in larvae survival at 10 times MIC. Type of series: functional.
A short description of series [20]: Lipophilicity, log D of the compound at pH 7.4. Type of series: physicochemical. To be noted: buffer.
Series [21] has as its system Staphylococcus aureus. Description: Antimicrobial activity against quinazoline-resistant Staphylococcus aureus assessed as complete inhibition of bacterial growth after 24 hrs. In kind it is functional, organism-based.
For series [22] the following is noted: pampa, pH 7.4.
Series [23] can be described thus: Lipophilicity, log D of the compound at pH 3. Type of series: physicochemical. The conditions noted are these: buffer.
Series [24] in a line: Aqueous solubility of the compound at pH 7.4 after 18 hrs incubation by HPLC. Type of series: physicochemical.
Series [25] relates to Staphylococcus aureus. Description: Antimicrobial activity against Staphylococcus aureus infected Galleria mellonella assessed as increase in larvae survival at 5 times MIC. In kind it is functional.
Series [26] can be described thus: Cytotoxicity against human A549 cells assessed as cell viability recovery at 18 uM by MTT assay relative to untreated control. Type of series: cell-based. To be noted: read-out: Activity.
Series [27] is described as follows: Cytotoxicity against human A549 cells assessed as cell viability recovery up to 440 uM by MTT assay relative to untreated control. The conditions noted are these: read-out: Activity. Type of series: cell-based.
Series [28] has as its system Staphylococcus aureus. Description: Antimicrobial activity against trimethoprim-resistant Staphylococcus aureus assessed as complete inhibition of bacterial growth after 24 hrs. Type of series: functional, organism-based.
For a further series, the system named is Aspergillus niger. Description: Antimicrobial activity against Aspergillus niger. In kind it is functional.
Series [29] has as its system Klebsiella pneumoniae. Description: Antimicrobial activity against Klebsiella pneumoniae. Type of series: functional.
The subject of a further series is Salmonella typhimurium. Description: Antimicrobial activity against Salmonella typhimurium. In kind it is functional, Salmonella enterica subsp. enterica serovar Typhimurium. To be noted: Salmonella enterica.
Another series relates to Bacillus subtilis. Description: Antimicrobial activity against Bacillus subtilis. In kind it is functional, organism-based.
A further series concerns Escherichia coli. Description: Antimicrobial activity against Escherichia coli. In kind it is functional.
For another series, the system named is Streptococcus pyogenes. Description: Antimicrobial activity against Streptococcus pyogenes. Type of series: functional.
Another series has as its system Candida albicans. Description: Antimicrobial activity against Candida albicans. Type of series: functional.
In a further series the test system is Trichoderma viride. Description: Antimicrobial activity against Trichoderma viride. Type of series: functional.
Series [30] deals with Staphylococcus aureus. Description: Antimicrobial activity against Staphylococcus aureus. Type of series: functional, organism-based.
Series [31] has as its system Klebsiella pneumoniae. Description: Antimicrobial activity against Klebsiella pneumoniae infected in mouse assessed as survival rate at 100 mg/kg. In kind it is functional.

Values after ≈ are worked out from the molar mass of the structure shown. Active and inactive are the calls of the source.

By MIC is commonly meant the least concentration at which growth counts as inhibited. What is called solubility is how much of the substance goes into solution per volume. The low end stands for little dissolved substance, the high end for much dissolved substance. In general, logD refers to the decadic logarithm of the distribution of all forms, ionised or not, between an organic phase and buffer at a given pH. A word on the EC50: it is the concentration that produces a half-maximal response.

`CCCCNc1nc(NCc2ccccc2)c2ccc(Cl)cc2n1`: the MIC in the series on Staphylococcus aureus [1], in the series with Staphylococcus aureus [3], in the series with Staphylococcus aureus [4], in the series with Staphylococcus aureus [5], in the series on Staphylococcus aureus [6] and in the series with Staphylococcus aureus [7] was 0.73 µM (≈ 0.249 µg/mL) each time. In addition, the MIC with Staphylococcus aureus [8] and with Staphylococcus aureus [9] was 0.73 µM (≈ 0.249 µg/mL) throughout. In addition, in the series on Staphylococcus aureus [2], the inhibition entry is “inactive”.
On to `Cc1cc2nc(-c3nccs3)n(-c3ccc4c(N)nc(N)nc4c3)c2cc1C`, for which the MIC with Staphylococcus aureus [10] was found to be 0.25 µg/mL (≈ 0.645 µM). In addition, the PD50 in the series on Staphylococcus aureus [11] turned out to be 2 mg/kg.
With `CC(C)Nc1nc(NC2CCCCC2)c2ccccc2n1`, the viability at up to 8.8 µM in series [12] was over 100%. Moreover, in series [13], the viability at 440 µM is 70.3%. The MIC in the series with Staphylococcus aureus [1] stood at 3.5 µM (≈ 0.995 µg/mL). Moreover, the inhibition result in the series on Staphylococcus aureus [2] is “inactive”. Moreover, the solubility at 18 h in [14] is at least 30 µM; in series [24], at most 30 µM. Also, the “fractional inhibitory concentration index (FICI)” value in the series on Staphylococcus aureus [15] worked out at 0.1. Further, in the series on Staphylococcus aureus [16], the zone of inhibition at 5000 µg/mL stood at 13 mm. For the same compound, the permeability in series [17] turned out to be 112 ×10⁻⁶ cm/s; in [22], 783 ×10⁻⁶ cm/s. Further, the MBC50 with Staphylococcus aureus [18] came out at 8.8 µM (≈ 2.5 µg/mL). For the same compound, the results for the Survival in the series on Staphylococcus aureus [19] and in the series with Staphylococcus aureus [25] were 70% and 40%, respectively. Further, the results for the logD in [20] and in series [23] were 4.69 and 3.56, respectively. Moreover, the inhibition result with Staphylococcus aureus [21] and in the series with Staphylococcus aureus [28] was “Active” throughout. Also, the viability at 18 µM in series [26] is 98.6%. The viability in series [27] was over 60%.
Turning to `c1ccc2c(c1)cc1c3ccccc3nc(-c3csc4ccccc34)n21`, the MIC came out at 2 µg/mL (≈ 5.71 µM) against Aspergillus niger; 2 µg/mL against Klebsiella pneumoniae [29]; 2 µg/mL (≈ 5.71 µM) with Salmonella typhimurium; 2 µg/mL (≈ 5.71 µM) with Bacillus subtilis; 2 µg/mL against Escherichia coli; 2 µg/mL (≈ 5.71 µM) with Streptococcus pyogenes. Moreover, the MIC against Candida albicans was 2 µg/mL (≈ 5.71 µM); in the series on Trichoderma viride it was 2 µg/mL (≈ 5.71 µM); against Staphylococcus aureus [30] it was 2 µg/mL.
For the compound `COc1cc2nc(N3CCC(Nc4ccc(C(=O)O)cc4)CC3)nc(N)c2cc1OC`, the MIC stood at 12 µM against Klebsiella pneumoniae [29], 2 µM against Escherichia coli and 12 µM against Staphylococcus aureus [30]. The survival at 100 mg/kg in the series with Klebsiella pneumoniae [31] came out at 40%.
`Cc1ccc(CNc2nc(NCc3ccccc3)c3ccccc3n2)cc1`: the MIC in the series with Staphylococcus aureus [1] is 28 µM (≈ 9.92 µg/mL); in the series with Staphylococcus aureus [3], 28 µM (≈ 9.92 µg/mL); in the series on Staphylococcus aureus [4], 2.8 µM (≈ 0.992 µg/mL); in the series with Staphylococcus aureus [5], 2.8 µM (≈ 0.992 µg/mL); in the series on Staphylococcus aureus [6] it was 2.8 µM (≈ 0.992 µg/mL); in the series with Staphylococcus aureus [7] it was 2.8 µM (≈ 0.992 µg/mL). Moreover, the MIC in the series with Staphylococcus aureus [8] and in the series with Staphylococcus aureus [9] was 2.8 µM (≈ 0.992 µg/mL) throughout. Further, in the series with Staphylococcus aureus [2], the inhibition result is “inactive”.
In the case of `Cc1ccc(Nc2nc(-c3ccccc3)nc3ccccc23)cc1`, in the series on Bacillus subtilis, it took 0.7 µg/mL (≈ 2.25 µM) to reach a half-maximal effect (EC50) and the MIC was 1 µg/mL (≈ 3.21 µM). In the series on Staphylococcus aureus [30], the EC50 turned out to be 0.8 µg/mL (≈ 2.57 µM) and it took 10 µg/mL to inhibit growth (MIC).
Take `Cc1ccc(CNc2nc(NCc3ccc(C)cc3)c3ccccc3n2)cc1`: the MIC was 27 µM (≈ 9.95 µg/mL) in the series on Staphylococcus aureus [1]; 27 µM (≈ 9.95 µg/mL) with Staphylococcus aureus [3]; 2.7 µM (≈ 0.995 µg/mL) with Staphylococcus aureus [4]; 2.7 µM (≈ 0.995 µg/mL) in the series with Staphylococcus aureus [5]; 2.7 µM (≈ 0.995 µg/mL) in the series with Staphylococcus aureus [6]; 2.7 µM (≈ 0.995 µg/mL) in the series on Staphylococcus aureus [7]. The MIC is 2.7 µM (≈ 0.995 µg/mL) with Staphylococcus aureus [8] and 27 µM (≈ 9.95 µg/mL) in the series with Staphylococcus aureus [9]. For the same compound, the inhibition result in the series with Staphylococcus aureus [2] is “inactive”.

The record behind these values is ChEMBL document CHEMBL3259619, “Antibacterial activity of a series of N2,N4-disubstituted quinazoline-2,4-diamines” (J Med Chem, 2014).
